Among the targets are BMPR1A (Homo sapiens, UniProt P36894); DAPK1 (Homo sapiens, UniProt P53355); EGFR(G719S) (Homo sapiens, UniProt P00533, G719S); PAK3 (Homo sapiens, UniProt O75914); TLK2 (Homo sapiens, UniProt Q86UE8).
Assay in all cases: biochemical
Set-up in all cases: DiscoveRx KINOMEscan active site-directed competition binding; percent of control kinase bound to immobilised ligand

For another test, the target named is T1, FLT3(ITD,D835V) (Homo sapiens, UniProt P36888, D835V/ITD).
T1 sequence (P36888 564-993 D835V): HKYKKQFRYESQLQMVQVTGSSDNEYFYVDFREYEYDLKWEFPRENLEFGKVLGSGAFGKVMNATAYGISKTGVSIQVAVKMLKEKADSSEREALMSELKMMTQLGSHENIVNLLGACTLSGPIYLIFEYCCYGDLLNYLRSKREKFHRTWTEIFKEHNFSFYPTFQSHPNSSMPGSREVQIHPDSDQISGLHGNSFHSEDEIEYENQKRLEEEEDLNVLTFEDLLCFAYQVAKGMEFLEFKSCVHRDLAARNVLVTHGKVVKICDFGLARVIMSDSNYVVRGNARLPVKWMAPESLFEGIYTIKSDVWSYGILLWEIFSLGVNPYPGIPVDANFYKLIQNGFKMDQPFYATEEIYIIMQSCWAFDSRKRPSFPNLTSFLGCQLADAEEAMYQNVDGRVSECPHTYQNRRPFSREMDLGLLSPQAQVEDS

A further test deals with T2, JNK2 (Homo sapiens, UniProt P45984).
T2 construct: gene MAPK9

The next test has as its target T3, SGK (Homo sapiens, UniProt O00141).
T3 construct: gene SGK1
T3 sequence (O00141 1-431): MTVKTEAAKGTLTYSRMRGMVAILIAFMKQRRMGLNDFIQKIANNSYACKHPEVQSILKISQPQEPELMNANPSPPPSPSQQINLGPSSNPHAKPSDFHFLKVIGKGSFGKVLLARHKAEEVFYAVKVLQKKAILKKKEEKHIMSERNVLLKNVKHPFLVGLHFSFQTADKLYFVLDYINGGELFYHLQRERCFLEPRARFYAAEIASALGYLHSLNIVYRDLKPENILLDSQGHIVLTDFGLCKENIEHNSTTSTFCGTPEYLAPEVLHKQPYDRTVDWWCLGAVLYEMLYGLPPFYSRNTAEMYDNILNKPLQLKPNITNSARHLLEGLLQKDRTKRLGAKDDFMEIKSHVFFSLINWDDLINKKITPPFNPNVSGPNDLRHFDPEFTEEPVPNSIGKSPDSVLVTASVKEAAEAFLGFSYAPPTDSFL

In the next test the target is T4, ZAP70 (Homo sapiens, UniProt P43403).
T4 sequence (P43403 1-619): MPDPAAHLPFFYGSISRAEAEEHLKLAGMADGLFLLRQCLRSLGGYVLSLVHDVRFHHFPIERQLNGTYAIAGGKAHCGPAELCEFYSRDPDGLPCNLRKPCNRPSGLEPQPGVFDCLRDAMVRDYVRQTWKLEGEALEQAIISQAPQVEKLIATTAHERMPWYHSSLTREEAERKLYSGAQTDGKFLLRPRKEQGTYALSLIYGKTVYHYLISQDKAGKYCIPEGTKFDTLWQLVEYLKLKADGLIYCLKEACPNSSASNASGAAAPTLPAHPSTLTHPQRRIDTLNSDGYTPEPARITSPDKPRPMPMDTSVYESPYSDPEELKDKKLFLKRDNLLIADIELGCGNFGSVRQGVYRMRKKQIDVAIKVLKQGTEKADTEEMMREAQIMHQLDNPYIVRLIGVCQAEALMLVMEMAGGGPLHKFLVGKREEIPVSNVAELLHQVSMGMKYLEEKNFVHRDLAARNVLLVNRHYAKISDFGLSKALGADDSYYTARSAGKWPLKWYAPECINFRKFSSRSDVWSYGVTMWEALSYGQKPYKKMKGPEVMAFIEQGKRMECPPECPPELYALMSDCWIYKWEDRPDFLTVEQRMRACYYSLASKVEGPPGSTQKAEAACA

Setting [1] is: read-out: Rucaparib / %Ctrl @ 10000nM, binding competition, % of control.
[2] abbreviates: read-out: Talazoparib (BMN 673) / %Ctrl @ 10000nM.
[3] abbreviates: read-out: Niraparib (MK-4827) / %Ctrl @ 10000nM.
[4] abbreviates: read-out: Olaparib / %Ctrl @ 10000nM.

Molecules are shown by their SMILES. Where two headings read alike, the source gives them in different places.

T2 sequence (P45984 whole entry): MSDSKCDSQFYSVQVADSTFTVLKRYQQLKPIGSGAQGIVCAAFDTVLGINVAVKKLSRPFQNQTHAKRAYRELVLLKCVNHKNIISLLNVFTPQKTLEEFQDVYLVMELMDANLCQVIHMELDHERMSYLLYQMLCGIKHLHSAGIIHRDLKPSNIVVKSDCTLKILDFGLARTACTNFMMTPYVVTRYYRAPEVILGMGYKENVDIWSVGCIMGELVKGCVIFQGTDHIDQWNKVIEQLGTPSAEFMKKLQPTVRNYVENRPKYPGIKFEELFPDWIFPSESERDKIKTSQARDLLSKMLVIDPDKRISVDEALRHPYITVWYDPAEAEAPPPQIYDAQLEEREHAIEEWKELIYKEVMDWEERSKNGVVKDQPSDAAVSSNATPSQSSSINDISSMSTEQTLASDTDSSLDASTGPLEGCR
BMPR1A, sequence (P36894 whole entry): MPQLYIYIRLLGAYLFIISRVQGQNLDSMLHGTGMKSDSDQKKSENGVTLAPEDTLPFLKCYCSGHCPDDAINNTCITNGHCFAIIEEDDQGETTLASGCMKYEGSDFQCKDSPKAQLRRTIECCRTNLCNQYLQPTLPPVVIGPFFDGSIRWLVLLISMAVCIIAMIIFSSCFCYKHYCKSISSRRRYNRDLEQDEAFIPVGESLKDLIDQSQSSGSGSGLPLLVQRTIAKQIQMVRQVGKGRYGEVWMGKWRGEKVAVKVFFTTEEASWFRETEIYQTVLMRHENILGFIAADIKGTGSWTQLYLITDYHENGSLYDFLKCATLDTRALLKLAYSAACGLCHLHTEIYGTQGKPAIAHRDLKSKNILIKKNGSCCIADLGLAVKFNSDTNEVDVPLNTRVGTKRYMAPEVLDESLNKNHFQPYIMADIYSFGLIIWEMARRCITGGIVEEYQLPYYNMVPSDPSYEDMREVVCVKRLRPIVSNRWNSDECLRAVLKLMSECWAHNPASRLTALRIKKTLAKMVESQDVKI
TLK2, sequence (Q86UE8 whole entry): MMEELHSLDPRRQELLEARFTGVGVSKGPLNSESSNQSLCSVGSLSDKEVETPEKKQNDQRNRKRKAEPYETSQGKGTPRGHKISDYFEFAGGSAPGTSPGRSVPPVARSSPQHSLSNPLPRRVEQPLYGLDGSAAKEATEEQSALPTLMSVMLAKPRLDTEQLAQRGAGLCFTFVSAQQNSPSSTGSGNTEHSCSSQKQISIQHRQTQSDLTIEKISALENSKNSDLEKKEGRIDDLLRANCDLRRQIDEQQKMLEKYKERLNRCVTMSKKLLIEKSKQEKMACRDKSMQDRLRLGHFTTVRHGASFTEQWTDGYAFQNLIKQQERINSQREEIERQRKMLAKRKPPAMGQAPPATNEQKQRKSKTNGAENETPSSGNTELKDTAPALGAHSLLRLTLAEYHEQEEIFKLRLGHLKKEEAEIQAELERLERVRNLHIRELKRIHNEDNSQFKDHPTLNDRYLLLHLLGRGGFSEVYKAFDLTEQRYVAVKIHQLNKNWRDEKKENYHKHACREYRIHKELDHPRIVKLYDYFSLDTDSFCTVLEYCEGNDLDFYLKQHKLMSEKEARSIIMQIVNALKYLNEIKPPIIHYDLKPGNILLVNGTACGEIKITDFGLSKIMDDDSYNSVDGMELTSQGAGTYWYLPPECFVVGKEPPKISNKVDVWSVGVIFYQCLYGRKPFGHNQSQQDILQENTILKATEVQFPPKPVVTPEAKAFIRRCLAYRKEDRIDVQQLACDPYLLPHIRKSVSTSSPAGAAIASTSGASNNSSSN
EGFR(G719S), sequence (P00533 whole entry G719S): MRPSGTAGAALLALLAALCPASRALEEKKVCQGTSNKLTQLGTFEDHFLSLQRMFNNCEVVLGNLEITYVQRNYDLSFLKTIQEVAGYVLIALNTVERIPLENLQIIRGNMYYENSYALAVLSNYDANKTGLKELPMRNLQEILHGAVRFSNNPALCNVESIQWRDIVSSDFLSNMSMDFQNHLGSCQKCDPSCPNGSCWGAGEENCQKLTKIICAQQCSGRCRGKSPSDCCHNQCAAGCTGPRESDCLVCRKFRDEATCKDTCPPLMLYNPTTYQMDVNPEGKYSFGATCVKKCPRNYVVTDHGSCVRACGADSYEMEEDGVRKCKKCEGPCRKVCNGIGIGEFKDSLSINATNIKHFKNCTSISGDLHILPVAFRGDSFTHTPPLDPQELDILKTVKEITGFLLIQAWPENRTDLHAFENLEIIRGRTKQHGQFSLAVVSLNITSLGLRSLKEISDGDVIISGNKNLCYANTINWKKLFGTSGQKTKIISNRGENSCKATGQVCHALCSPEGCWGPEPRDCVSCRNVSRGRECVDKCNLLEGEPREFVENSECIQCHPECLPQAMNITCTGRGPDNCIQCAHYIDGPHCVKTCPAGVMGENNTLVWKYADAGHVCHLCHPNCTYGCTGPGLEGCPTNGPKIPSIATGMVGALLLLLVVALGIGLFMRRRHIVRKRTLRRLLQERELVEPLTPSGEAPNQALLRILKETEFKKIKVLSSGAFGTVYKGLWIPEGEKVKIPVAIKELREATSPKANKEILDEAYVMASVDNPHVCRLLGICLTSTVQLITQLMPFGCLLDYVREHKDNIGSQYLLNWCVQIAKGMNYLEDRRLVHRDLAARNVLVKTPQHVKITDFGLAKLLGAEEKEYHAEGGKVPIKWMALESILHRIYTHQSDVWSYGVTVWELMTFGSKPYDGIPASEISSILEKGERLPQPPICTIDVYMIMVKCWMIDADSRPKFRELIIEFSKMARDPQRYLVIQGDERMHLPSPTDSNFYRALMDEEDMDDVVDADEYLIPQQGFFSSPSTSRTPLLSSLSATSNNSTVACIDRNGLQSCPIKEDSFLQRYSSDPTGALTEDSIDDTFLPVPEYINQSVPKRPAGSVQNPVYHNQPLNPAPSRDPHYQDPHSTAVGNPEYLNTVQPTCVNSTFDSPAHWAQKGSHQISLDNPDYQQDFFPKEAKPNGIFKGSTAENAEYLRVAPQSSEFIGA
DAPK1, sequence (P53355 whole entry): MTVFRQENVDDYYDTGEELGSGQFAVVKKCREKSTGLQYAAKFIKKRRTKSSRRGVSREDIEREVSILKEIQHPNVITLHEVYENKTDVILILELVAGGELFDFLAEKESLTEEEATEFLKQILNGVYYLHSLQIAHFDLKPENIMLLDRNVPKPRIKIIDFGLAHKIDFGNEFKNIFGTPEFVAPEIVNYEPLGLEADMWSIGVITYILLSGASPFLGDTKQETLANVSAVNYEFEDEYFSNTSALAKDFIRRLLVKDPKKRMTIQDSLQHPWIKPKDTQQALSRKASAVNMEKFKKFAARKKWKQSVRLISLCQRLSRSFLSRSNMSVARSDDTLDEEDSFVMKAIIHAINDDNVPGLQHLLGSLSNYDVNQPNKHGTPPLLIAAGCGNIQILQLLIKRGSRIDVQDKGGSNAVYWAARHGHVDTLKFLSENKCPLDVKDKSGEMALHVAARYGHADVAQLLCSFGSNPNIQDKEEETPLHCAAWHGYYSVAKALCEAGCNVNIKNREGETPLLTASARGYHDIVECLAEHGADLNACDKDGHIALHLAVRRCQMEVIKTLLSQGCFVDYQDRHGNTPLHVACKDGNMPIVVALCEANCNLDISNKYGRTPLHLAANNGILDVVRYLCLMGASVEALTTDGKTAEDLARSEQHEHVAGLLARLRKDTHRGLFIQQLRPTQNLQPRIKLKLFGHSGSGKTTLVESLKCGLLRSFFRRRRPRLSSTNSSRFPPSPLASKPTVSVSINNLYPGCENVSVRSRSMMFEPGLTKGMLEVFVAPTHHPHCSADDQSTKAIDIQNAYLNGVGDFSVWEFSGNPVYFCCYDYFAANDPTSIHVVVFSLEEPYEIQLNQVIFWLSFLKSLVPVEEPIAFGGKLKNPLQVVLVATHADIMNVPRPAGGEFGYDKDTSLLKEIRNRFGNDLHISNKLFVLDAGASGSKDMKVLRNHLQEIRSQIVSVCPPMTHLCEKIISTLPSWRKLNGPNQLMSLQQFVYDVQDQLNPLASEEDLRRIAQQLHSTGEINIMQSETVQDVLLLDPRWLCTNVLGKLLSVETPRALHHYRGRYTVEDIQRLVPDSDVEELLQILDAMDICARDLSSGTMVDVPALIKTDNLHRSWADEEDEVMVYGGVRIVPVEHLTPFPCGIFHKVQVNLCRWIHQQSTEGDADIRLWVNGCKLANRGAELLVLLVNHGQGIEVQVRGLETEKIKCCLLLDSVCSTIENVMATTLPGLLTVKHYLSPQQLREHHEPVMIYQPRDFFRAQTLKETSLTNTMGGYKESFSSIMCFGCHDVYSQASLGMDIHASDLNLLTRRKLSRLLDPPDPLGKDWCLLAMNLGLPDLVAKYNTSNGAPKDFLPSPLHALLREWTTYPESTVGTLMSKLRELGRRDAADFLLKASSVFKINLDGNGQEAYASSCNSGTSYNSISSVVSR
PAK3, sequence (O75914 whole entry): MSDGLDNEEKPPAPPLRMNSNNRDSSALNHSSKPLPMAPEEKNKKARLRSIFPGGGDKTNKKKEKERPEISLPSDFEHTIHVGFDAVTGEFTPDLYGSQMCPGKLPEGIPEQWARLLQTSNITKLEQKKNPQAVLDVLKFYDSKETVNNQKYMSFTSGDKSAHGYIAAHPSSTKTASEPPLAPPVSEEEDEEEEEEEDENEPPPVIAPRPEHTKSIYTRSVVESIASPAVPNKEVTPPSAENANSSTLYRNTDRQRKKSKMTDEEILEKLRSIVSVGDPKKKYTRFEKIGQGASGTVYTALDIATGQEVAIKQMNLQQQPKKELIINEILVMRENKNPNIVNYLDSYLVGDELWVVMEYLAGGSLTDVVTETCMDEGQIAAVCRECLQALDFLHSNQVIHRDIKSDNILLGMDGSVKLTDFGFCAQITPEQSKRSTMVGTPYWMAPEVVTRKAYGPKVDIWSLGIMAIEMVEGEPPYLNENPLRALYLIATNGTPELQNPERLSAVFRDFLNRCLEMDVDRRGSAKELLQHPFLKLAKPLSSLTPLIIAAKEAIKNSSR

As for `CNCc1ccc(-c2[nH]c3cc(F)cc4c3c2CCNC4=O)cc1` [Rucaparib], the percent of control binding at 10 µM came to 91% on BMPR1A (setting [1]); 29% at DAPK1 (setting [1]); 89% on EGFR(G719S) (setting [1]); 68% on JNK2 (setting [1]); 95% at PAK3 (setting [1]); 61% at SGK (setting [1]). The percent of control binding at 10 µM amounted to 84% on TLK2 (setting [1]) and 80% on ZAP70 (setting [1]). For the same compound, the “Rucaparib / %Ctrl @ 10000nM” value on FLT3(ITD,D835V) (binding competition, % of control) is 8.1%.
Take `Cn1ncnc1[C@H]1c2n[nH]c(=O)c3cc(F)cc(c23)N[C@@H]1c1ccc(F)cc1` [Talazoparib]: the percent of control binding at 10 µM was determined as 100% at BMPR1A (setting [2]); 89% on DAPK1 (setting [2]); 99% on EGFR(G719S) (setting [2]); 100% on FLT3(ITD,D835V) (setting [2]); 95% on JNK2 (setting [2]); 100% at PAK3 (setting [2]). Besides, the percent of control binding at 10 µM at SGK (setting [2]) was 92%; at TLK2 (setting [2]), 84%; at ZAP70 (setting [2]), 100%.
For the compound `NC(=O)c1cccc2cn(-c3ccc([C@@H]4CCCNC4)cc3)nc12` [Niraparib], the percent of control binding at 10 µM was 94% at BMPR1A (setting [3]); 77% on DAPK1 (setting [3]); 74% on EGFR(G719S) (setting [3]); 36% at FLT3(ITD,D835V) (setting [3]); 95% on JNK2 (setting [3]); 67% at PAK3 (setting [3]). Besides, the results for the percent of control binding at 10 µM on SGK (setting [3]), at TLK2 (setting [3]) and on ZAP70 (setting [3]) were 89%, 95% and 100%, respectively.
Consider `O=C(c1cc(Cc2n[nH]c(=O)c3ccccc23)ccc1F)N1CCN(C(=O)C2CC2)CC1` [Olaparib], for which the percent of control binding at 10 µM at BMPR1A (setting [4]) is 100%; on DAPK1 (setting [4]), 87%; at EGFR(G719S) (setting [4]) it was 94%; at FLT3(ITD,D835V) (setting [4]), 100%; on JNK2 (setting [4]), 81%; at PAK3 (setting [4]), 96%. The percent of control binding at 10 µM is 97% on SGK (setting [4]), 95% on TLK2 (setting [4]) and 93% at ZAP70 (setting [4]).

The values are drawn from PMC7026418, “The kinase polypharmacology landscape of clinical PARP inhibitors” (Scientific Reports, 2020).
